From patent publication US10457707B2, “Substituted urea depsipeptide analogs as activators of the CLPP endopeptidase” (priority 2015, dated 2019) come the findings set out here.

Assay [1] concerns the target T1, Sa-ClpP (Staphylococcus aureus, UniProt Q2G036).
T1 construct: made in house; host or cells: E. coli BL21(DE3)
T1 sequence (Q2G036 1-195): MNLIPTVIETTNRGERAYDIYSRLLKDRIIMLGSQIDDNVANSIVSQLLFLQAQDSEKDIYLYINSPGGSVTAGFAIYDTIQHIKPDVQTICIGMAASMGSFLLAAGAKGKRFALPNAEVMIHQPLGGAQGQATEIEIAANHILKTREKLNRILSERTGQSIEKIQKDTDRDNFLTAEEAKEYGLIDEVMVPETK
In words: Sa-ClpP casein-BODIPY ClpP activation assay, method variant not marked in Table 5. The format is biochemical, S. aureus. The settings on record: values without ** or † mark; assay variant not stated; read-out: ClpP Activation EC50. How it is done: The compounds were assayed in a casein digestion assay in order to determine their effect on ClpP activation. Briefly, the assay was carried out using S. aureus ClpP (“Sa-ClpP”) overexpressed in E. coli BL21(DE3) and purified in a two-step process. Purity of the protein was assessed through SDS PAGE analysis. EC50 evaluations were conducted in triplicate in a 20 μl assay format using a method adapted from Maurizi et al. (Methods Enzymol. (1994) 244:314-331). Each well contained 10 μM saClpP, 25 μg/ml BODIPY FL casein (Invitrogen Corporation, San Diego, Calif.), and test compound in concentrations ranging between 0-1000 μM in assay buffer (50 mM Tris pH 8, 200 mM KCl, and 1 mM TCEP). The reaction took place at 37° C. Fluorescence (excitation 485 nm; emission 528 nm) was measured in five minute intervals over a 45 min period using a BioTek HT fluorescence microplate reader (BioTek Instruments, Inc., Winooski, Vt.). Velocity of each reaction was calculated and data was fit to a dose response curve using GraphPad Prism® software (GraphPad Software, Inc., La Jolla, Calif.). EC50 is the effective concentration of compound which causes 50% activation of S. aureus ClpP in the foregoing BODIPY FL casein assay.
Alternatively, the assay was carried out using EnzCheck Protease Assay (Molecular Probes, Catalog # E6638). The assay was performed in black 384 well, flat bottom, low volume plates (Greiner Bio-One, Monroe, N.C., catalog #784076). 10 μL of Tris*HCl buffer, pH 8.0 with 0.01% Triton X-100 was pipetted into each well using a Well-Mate (Thermo Scientific, Waltham, Mass.). 0.4 μL test compounds or controls (2% DMSO v/v) were added to each well using a Biomek FX liquid handling robot (Beckman Coulter, Indianapolis Ind.). After addition of test compounds and controls, 10 μL of master mix containing 2 μM Sa-ClpP and 2 μM substrate (Bodipy-FL labeled casein) in Tris*HCl buffer, pH 8.0 with 0.01% (v/v) Triton X-100, was pipetted into each well. All assays were performed in triplicate, under linear velocity conditions. Increase in fluorescent signal following activation of Sa-ClpP by test compounds and controls was measured over time period of 30 mins using filters with excitation at 485±15 nm and emission at 520±25 nm on a PHERAstar FS Multilabel reader (BMG, Cary, N.C.). […] Data analysis was done by measuring rate of casein degradation over time (slopes). Computed degradation rates (slopes) were normalized to positive (ADEP4) or negative (DMSO) controls. Using nonlinear regression curve fitting EC50 values and % activation were determined using the equation “log [agonist] vs. Response-variable slope (four parameters)-symmetrical” in the program Prism 6 (GraphPad Software, La Jolla, Calif. USA, www.graphpad.com).
Substituted urea depsipetide analogs were synthesized as described above. The EC50 for ClpP activation was determined in the Sa-ClpP in casein-BODIPY assay as described above. The IC50 for ADEP displacement was determined in the ADEP displacement fluorescent polarization assay as described above; and the IC50 for growth inhibition was determined in the Vero cell cytotoxicity assay as described above. The compound number corresponds to the compound numbers used in Tables 1-4 and the experimental examples described above.

Assay [2] deals with T1, Sa-ClpP. Briefly: ADEP displacement fluorescence polarization assay (FP probe ADEP 2591). The format is binding. How it is done:
A fluorescence polarization (FP) assay was used to determine the activity of the disclosed compounds in displacing an ADEP analogue from ClpP. Briefly, the assay was performed in black 384 well, flat bottom, low volume plates (Greiner Bio-One, Monroe, N.C., catalog #784076). 20 μL of a pre-equilibrated (1 hr, room temperature) master mix (15 μM Sa-ClpP, 2% DMSO (v/v) and 50 nM FP probe in Tris*HCl, pH 8.0)) was pipetted into each well using a Well-Mate (Thermo Scientific, Waltham, Mass.). Sa-ClpP was prepared as described above for the ClpP activation assay. The FP probe was ADEP 2591 (structure shown above). The ADEP 2591 comprises a TAMRA fluorophore linked to a core based on modified ADEP 2378 via a short alkyl linker. Using pin transfer, approximately 0.4 μL (2% v/v DMSO) of each compound or control was added per well. After addition of compounds and controls, plates were allowed to incubate for an additional 120 minutes at room temperature. All assays were performed in triplicate. Polarization was monitored using an EnVision Multilabel reader (Perkin-Elmer, Waltham, Mass.) by exciting the FP probe at 530±25 nm, and monitoring fluorescence intensity of both parallel and perpendicular polarized light at 579±25 nm. Readout was in millipolarization units (mP).
Data collected was normalized to values obtained from positive (200 μM ADEP 2378) or negative (DMSO) controls. Curves were fit with non-linear regression using the equation “log [inhibitor] vs. Response-variable slope (four parameters)-symmetrical” in the program Prism 6 (GraphPad Software, La Jolla, Calif. USA, www.graphpad.com). The structures for ADEP 2378 and ADEP 2591 are shown above. ADEP 2378 is (E)-N—((S)-1-(((2R,6S,8aS,14aS,20S,23aS)-2,6-dimethyl-5,8,14,19,23-pentaoxooctadecahydro-1H,5H,14H,19H-pyrido[2,1-i]dipyrrolo[2,1-c:2′,1′-1][1]oxa[4,7,10,13]tetraazacyclohexadecin-20-yl)amino)-1-oxo-3-phenylpropan-2-yl)pent-2-enamide. ADEP 2591 is 5-(3-(3-((6S,9S,11aS,17S,20aS)-6,10-dimethyl-5,8,11,16,20-pentaoxo-17-((S)-2-((E)-pent-2-enamido)-3-phenylpropanamido)hexadecahydro-1H,5H,16H-dipyrrolo[2,1-c:2′,1′-1][1]oxa[4,7,10,13]tetraazacyclohexadecin-9-yl)propyl)thioureido)-2-(6-(dimethylamino)-3-(dimethyliminio)-3H-xanthen-9-yl)benzoate.

The mark [3] stands for this setting: displacement of FP probe ADEP 2591 from Sa-ClpP, read-out: ADEP Displacement IC50.

Where two headings read alike, the source gives them in different places. *1 amine or outer side, *2 acyl side, *3 side chain or, on linkers, in order; H or OH if unused. Where a SMILES comes first, the peptide text is derived from it. Bridges are numbered along the chain shown (N, C = ends). [ ]: non-standard residue; d: D form. The star is where a group is joined. Phe(3,5-F2) = N[C@@H](Cc1cc(F)cc(F)c1)C(=O)O; NMepT = CN[C@H](C(=O)O)[C@@H](C)OP(=O)(O)O; NH(4-OCF3-phenyl) = FC(F)(F)Oc1ccc(N*)cc1; Morpholine(3S-CO) = O=C(O)[C@@H]1COCCN1; Pro(4S-Me) = C[C@@H]1CN[C@H](C(=O)O)C1; NMeaThr = CN[C@H](C(=O)O)[C@H](C)O; NH(4-Et-phenyl) = CCc1ccc(N*)cc1; NH(4-Me-phenyl) = Cc1ccc(N*)cc1; aThr = C[C@H](O)[C@H](N)C(=O)O; CO = O=C([*:1])[*:2]

As to `Cc1ccc(NC(=O)N[C@@H](Cc2cc(F)cc(F)c2)C(=O)N[C@@H]2C(=O)N3CCC[C@H]3C(=O)N(C)[C@@H]([C@@H](C)OP(=O)(O)O)C(=O)N[C@@H](C)C(=O)N3C[C@@H](C)C[C@H]3C(=O)O[C@H]2C)cc1` [Compound 188, (R)-1-((2S,6S,9S,11aS,17S,18S,20aS)-17-((S)-3-(3,5-difluorophenyl)-2-(3-(p-tolyl)ureido)propanamido)-2,6,10,18-tetramethyl-5,8,11,16,20-pentaoxohexadecahydro-1H,5H,16H-dipyrrolo[2,1-c:2′,1′-l][1]oxa[4,7,10,13]tetraazacyclohexadecin-9-yl)ethyl dihydrogen phosphate] ({NH(4-Me-phenyl)-CO}-[Phe(3,5-F2)][aThr]P[NMepT]A[Pro(4S-Me)]; ester 2-C), the 50% effective concentration (EC50) at Sa-ClpP [1] was 1800 ± 70 nM. The IC50 at Sa-ClpP [2] was 13.7 ± 0.6 µM.

`C[C@@H]1C[C@H]2C(=O)OC[C@H](NC(=O)[C@H](Cc3ccccc3)NC(=O)Nc3ccc4c(c3)OCO4)C(=O)N3CCC[C@H]3C(=O)N3CCCC[C@H]3C(=O)N[C@@H](C)C(=O)N2C1` [Compound 194, (S)-2-(3-(benzo[d][1,3]dioxol-5-yl)ureido)-N-((2R,6S,8aS,14aS,20S,23aS)-2,6-dimethyl-5,8,14,19,23-pentaoxooctadecahydro-1H,5H,14H,19H-pyrido[2,1-i]dipyrrolo[2,1-c:2′,1′-l][1]oxa[4,7,10,13]tetraazacyclohexadecin-20-yl)-3-phenylpropanamide]: at Sa-ClpP [1], the concentration giving a half-maximal response (EC50) came out at 1200 ± 600 nM. The compound further registered an IC50 on Sa-ClpP [2] of 8 ± 0.6 µM.

For `C[C@H]1C[C@H]2C(=O)O[C@@H](C)[C@H](NC(=O)[C@H](Cc3cc(F)cc(F)c3)NC(=O)Nc3ccc(OC(F)(F)F)cc3)C(=O)N3CCC[C@H]3C(=O)N3CCOC[C@H]3C(=O)N[C@@H](C)C(=O)N2C1` [Compound 201, (S)-3-(3,5-difluorophenyl)-2-(3-(4-(trifluoromethoxy)phenyl)ureido)-N-((6aS,12S,13S,15aS,17S,21S,23aS)-13,17,21-trimethyl-6,11,15,20,23-pentaoxooctadecahydro-6H,11H,15H-[1,4]oxazino[3,4-i]dipyrrolo[2,1-c:2′,1′-l][1]oxa[4,7,10,13]tetraazacyclohexadecin-12-yl)propanamide] ({NH(4-OCF3-phenyl)-CO}-[Phe(3,5-F2)][aThr]P[Morpholine(3S-CO)]A[Pro(4S-Me)]; ester 2-C), on Sa-ClpP [1], the EC50 amounted to 330 ± 10 nM. At Sa-ClpP [2] (setting [3]), the IC50 amounted to 6.1 ± 0.4 µM.

Turning to `Cc1ccc(NC(=O)N[C@@H](Cc2cc(F)cc(F)c2)C(=O)N[C@@H]2C(=O)N3CCC[C@H]3C(=O)N(C)[C@@H]([C@H](C)O)C(=O)N[C@@H](C)C(=O)N3C[C@@H](C)C[C@H]3C(=O)O[C@H]2C)cc1` [Compound 202, (S)-3-(3,5-difluorophenyl)-N-((2S,6S,9S,11aS,17S,18S,20aS)-9-((S)-1-hydroxyethyl)-2,6,10,18-tetramethyl-5,8,11,16,20-pentaoxohexadecahydro-1H,5H,16H-dipyrrolo[2,1-c:2′,1′-L][1]oxa[4,7,10,13]tetraazacyclohexadecin-17-yl)-2-(3-(p-tolyl)ureido)propanamide] ({NH(4-Me-phenyl)-CO}-[Phe(3,5-F2)][aThr]P[NMeaThr]A[Pro(4S-Me)]; ester 2-C), the EC50 on Sa-ClpP [1] was determined as 480 ± 30 nM. Besides, at Sa-ClpP [2] (setting [3]), the half-maximal inhibitory concentration (IC50) was 6.6 ± 0.4 µM.

`C[C@H]1C[C@H]2C(=O)O[C@@H](C)[C@H](NC(=O)[C@H](Cc3cc(F)cc(F)c3)NC(=O)Nc3ccc(OC(F)(F)F)cc3)C(=O)N3CCC[C@H]3C(=O)N(C)[C@@H]([C@H](C)O)C(=O)N[C@@H](C)C(=O)N2C1` [Compound 203, (S)-3-(3,5-difluorophenyl)-N-((2S,6S,9S,11aS,17S,18S,20aS)-9-((S)-1-hydroxyethyl)-2,6,10,18-tetramethyl-5,8,11,16,20-pentaoxohexadecahydro-1H,5H,16H-dipyrrolo[2,1-c:2′,1′-l][1]oxa[4,7,10,13]tetraazacyclohexadecin-17-yl)-2-(3-(4-(trifluoromethoxy)phenyl)ureido)propanamide] ({NH(4-OCF3-phenyl)-CO}-[Phe(3,5-F2)][aThr]P[NMeaThr]A[Pro(4S-Me)]; ester 2-C): the EC50 on Sa-ClpP [1] amounted to 430 ± 10 nM. Moreover, at Sa-ClpP [2] (setting [3]), the IC50 was determined as 6.4 ± 0.5 µM.

In the case of `CCc1ccc(NC(=O)N[C@@H](Cc2cc(F)cc(F)c2)C(=O)N[C@@H]2C(=O)N3CCC[C@H]3C(=O)N(C)[C@@H]([C@H](C)O)C(=O)N[C@@H](C)C(=O)N3C[C@@H](C)C[C@H]3C(=O)O[C@H]2C)cc1` [Compound 204, (S)-3-(3,5-difluorophenyl)-2-(3-(4-ethylphenyl)ureido)-N-((2S,6S,9S,11aS,17S,18S,20aS)-9-((S)-1-hydroxyethyl)-2,6,10,18-tetramethyl-5,8,11,16,20-pentaoxohexadecahydro-1H,5H,16H-dipyrrolo[2,1-c:2′,1′-l][1]oxa[4,7,10,13]tetraazacyclohexadecin-17-yl)propanamide] ({NH(4-Et-phenyl)-CO}-[Phe(3,5-F2)][aThr]P[NMeaThr]A[Pro(4S-Me)]; ester 2-C), the half-maximal effective concentration (EC50) on Sa-ClpP [1] turned out to be 350 ± 10 nM. Moreover, on Sa-ClpP [2] (setting [3]), the concentration for half-maximal inhibition (IC50) came to 7 ± 0.4 µM.

Take `Cc1ccc(NC(=O)N[C@@H](Cc2ccccc2)C(=O)N[C@H]2COC(=O)[C@@H]3C[C@@H](C)CN3C(=O)[C@H](C)NC(=O)[C@@H]3CCCCN3C(=O)[C@@H]3CCCN3C2=O)cc1C` [Compound 206, (S)—N-((2R,6S,8aS,14aS,20S,23aS)-2,6-dimethyl-5,8,14,19,23-pentaoxooctadecahydro-1H,5H,14H,19H-pyrido[2,1-i]dipyrrolo[2,1-c:2′,1′-l][1]oxa[4,7,10,13]tetraazacyclohexadecin-20-yl)-2-(3-(3,4-dimethylphenyl)ureido)-3-phenylpropanamide]: on Sa-ClpP [1], the EC50 came to 1600 ± 300 nM. Moreover, at Sa-ClpP [2], the IC50 was determined as 7.1 ± 0.3 µM.

One may read the EC50 as the concentration giving half of the maximal effect. As usually defined, the IC50 is the midpoint of a concentration-inhibition curve.
